Experimental data published in ChEMBL document CHEMBL4507319 (2021).

Experiments:
[1] = target: Atypical kinase COQ8B, mitochondrial (Homo sapiens) (UniProt Q96D53); details: Compound concentration 1000.0 nM
[2] = system: Epidermal growth factor receptor (Homo sapiens), P00533 [UNDEFINED MUTATION]; details: Compound concentration 1000.0 nM
[3] = target: Mitogen-activated protein kinase kinase kinase 13 (Homo sapiens) (UniProt O43283); details: Compound concentration 1000.0 nM
[4] = target: T1, Myosin light chain kinase (Homo sapiens) (UniProt Q32MK0); details: Compound concentration 1000.0 nM
T1 sequence (whole entry): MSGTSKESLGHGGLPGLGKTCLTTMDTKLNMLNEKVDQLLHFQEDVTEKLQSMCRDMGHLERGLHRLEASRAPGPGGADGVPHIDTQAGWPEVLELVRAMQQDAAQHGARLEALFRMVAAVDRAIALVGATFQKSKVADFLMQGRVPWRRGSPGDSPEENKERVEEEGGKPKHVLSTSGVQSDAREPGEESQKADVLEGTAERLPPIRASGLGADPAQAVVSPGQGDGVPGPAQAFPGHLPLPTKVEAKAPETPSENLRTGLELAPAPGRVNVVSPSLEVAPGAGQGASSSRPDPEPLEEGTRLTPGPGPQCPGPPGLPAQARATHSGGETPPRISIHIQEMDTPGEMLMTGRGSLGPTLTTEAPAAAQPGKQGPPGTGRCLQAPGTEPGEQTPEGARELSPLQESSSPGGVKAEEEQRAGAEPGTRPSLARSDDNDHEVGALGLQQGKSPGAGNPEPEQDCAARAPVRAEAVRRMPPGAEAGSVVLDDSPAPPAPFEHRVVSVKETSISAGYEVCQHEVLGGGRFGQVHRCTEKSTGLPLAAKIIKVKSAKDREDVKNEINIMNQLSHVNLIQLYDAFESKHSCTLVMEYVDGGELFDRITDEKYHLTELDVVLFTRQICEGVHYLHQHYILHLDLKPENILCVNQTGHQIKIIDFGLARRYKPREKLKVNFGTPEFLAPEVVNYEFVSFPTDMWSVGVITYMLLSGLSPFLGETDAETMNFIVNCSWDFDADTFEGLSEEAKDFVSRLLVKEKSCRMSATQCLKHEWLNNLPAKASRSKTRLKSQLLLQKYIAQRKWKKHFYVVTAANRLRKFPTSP

[5] = target: T2, Muscle, skeletal receptor tyrosine-protein kinase (Homo sapiens) (UniProt O15146); details: Compound concentration 1000.0 nM
T2 sequence (whole entry): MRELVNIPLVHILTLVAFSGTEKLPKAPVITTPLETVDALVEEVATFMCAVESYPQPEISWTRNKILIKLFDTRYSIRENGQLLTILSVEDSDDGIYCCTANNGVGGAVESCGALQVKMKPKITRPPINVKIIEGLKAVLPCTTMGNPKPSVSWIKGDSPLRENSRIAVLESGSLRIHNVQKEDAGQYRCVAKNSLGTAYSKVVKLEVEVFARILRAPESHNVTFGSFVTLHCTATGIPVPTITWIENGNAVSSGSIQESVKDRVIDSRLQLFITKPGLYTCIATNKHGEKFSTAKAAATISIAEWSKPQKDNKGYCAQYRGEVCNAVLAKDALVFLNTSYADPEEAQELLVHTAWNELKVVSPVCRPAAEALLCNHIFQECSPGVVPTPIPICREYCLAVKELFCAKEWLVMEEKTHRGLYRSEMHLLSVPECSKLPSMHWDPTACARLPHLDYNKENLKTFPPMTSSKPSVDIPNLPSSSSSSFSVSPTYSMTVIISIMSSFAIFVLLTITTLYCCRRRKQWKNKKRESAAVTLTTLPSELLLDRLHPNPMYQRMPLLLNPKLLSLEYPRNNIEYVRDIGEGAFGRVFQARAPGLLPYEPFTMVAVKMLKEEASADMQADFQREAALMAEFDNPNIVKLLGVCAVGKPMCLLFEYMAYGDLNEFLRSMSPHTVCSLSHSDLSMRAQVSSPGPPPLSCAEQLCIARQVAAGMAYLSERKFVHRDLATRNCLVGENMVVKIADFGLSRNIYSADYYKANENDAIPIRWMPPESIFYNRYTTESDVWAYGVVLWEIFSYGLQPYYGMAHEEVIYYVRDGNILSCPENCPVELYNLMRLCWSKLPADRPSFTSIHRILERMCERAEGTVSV

[6] = target: T3, Serine/threonine-protein kinase Nek9 (Homo sapiens) (UniProt Q8TD19); details: Compound concentration 1000.0 nM
T3 sequence (whole entry): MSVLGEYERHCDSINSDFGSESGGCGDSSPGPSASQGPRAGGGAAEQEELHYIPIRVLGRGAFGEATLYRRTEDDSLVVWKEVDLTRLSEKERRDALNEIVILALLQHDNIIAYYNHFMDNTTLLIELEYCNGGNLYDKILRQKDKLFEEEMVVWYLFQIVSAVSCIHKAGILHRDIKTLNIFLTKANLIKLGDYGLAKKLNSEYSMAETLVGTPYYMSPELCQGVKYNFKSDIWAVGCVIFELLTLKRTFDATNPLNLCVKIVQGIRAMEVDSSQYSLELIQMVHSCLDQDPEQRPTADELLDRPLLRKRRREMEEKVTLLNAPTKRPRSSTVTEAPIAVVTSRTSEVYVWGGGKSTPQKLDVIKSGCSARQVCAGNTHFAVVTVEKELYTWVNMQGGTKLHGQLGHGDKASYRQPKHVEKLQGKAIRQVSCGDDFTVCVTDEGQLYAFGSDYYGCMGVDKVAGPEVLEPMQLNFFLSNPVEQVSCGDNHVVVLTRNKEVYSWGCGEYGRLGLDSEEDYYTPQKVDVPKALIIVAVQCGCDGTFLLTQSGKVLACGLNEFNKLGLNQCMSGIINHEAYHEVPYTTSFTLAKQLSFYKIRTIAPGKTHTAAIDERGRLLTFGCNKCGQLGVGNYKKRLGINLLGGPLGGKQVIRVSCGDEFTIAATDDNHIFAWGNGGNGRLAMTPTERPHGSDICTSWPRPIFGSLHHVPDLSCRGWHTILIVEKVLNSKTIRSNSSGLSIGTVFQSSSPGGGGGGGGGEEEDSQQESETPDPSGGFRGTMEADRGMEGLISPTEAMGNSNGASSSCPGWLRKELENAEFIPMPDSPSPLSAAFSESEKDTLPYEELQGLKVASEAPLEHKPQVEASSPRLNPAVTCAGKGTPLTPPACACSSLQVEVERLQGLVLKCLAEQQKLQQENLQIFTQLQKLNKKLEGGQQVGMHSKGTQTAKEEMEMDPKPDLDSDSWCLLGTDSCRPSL

[7] = target: Ribosomal protein S6 kinase alpha-5 (Homo sapiens, UniProt O75582); details: Compound concentration 1000.0 nM
Ribosomal protein S6 kinase alpha-5, sequence (O75582 whole entry, looked up): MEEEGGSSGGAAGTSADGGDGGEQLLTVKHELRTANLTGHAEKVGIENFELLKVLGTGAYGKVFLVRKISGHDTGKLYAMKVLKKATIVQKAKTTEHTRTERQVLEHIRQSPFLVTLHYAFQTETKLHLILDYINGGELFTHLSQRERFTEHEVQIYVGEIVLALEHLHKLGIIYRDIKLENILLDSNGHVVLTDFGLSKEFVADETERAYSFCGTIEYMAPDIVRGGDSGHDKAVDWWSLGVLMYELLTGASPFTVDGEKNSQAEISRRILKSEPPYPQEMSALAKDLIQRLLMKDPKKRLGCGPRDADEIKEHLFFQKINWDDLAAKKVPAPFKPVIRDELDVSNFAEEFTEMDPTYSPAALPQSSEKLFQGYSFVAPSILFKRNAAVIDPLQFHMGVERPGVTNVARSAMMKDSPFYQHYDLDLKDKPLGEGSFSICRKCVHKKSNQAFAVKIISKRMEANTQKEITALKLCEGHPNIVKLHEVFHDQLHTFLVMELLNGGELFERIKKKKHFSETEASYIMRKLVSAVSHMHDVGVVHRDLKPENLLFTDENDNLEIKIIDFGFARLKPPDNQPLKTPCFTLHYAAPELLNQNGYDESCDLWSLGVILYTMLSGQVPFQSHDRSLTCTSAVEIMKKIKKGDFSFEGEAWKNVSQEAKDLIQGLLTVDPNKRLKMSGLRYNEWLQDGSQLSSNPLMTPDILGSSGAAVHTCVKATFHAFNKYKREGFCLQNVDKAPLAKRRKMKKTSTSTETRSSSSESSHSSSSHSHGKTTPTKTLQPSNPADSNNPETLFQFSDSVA

[8] = target: Uncharacterized serine/threonine-protein kinase SBK3 (Homo sapiens) (UniProt P0C264); details: Compound concentration 1000.0 nM
Uncharacterized serine/threonine-protein kinase SBK3 (Homo sapiens), sequence (P0C264 whole entry): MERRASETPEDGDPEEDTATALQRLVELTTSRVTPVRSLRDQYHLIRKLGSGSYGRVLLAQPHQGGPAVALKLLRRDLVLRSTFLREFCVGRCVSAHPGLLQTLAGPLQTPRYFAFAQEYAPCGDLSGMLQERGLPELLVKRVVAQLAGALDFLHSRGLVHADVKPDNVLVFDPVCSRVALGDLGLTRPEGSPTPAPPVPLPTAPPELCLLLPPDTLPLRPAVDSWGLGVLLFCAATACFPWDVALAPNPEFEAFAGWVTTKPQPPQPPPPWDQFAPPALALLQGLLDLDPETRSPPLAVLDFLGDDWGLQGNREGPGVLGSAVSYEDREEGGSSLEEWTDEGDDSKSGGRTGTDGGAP

[9] = target: 5-hydroxytryptamine receptor 6 (Homo sapiens) (UniProt P50406); details: Compound concentration 10.0 uM
5-hydroxytryptamine receptor 6 (Homo sapiens), sequence (P50406 whole entry): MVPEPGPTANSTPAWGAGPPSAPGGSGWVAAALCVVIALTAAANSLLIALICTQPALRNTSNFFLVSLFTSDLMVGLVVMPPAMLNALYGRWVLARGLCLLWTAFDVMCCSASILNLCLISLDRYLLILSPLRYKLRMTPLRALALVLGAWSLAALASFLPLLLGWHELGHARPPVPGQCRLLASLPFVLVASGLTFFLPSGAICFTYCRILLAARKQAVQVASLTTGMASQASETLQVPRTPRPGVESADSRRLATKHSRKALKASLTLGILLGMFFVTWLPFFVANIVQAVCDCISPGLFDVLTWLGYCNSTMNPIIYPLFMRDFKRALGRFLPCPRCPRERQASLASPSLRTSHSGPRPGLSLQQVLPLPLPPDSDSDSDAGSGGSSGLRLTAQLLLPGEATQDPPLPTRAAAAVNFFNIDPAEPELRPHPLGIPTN

Epidermal growth factor receptor (Homo sapiens), P00533 [UNDEFINED MUTATION], sequence (P00533 whole entry, looked up, change not shown): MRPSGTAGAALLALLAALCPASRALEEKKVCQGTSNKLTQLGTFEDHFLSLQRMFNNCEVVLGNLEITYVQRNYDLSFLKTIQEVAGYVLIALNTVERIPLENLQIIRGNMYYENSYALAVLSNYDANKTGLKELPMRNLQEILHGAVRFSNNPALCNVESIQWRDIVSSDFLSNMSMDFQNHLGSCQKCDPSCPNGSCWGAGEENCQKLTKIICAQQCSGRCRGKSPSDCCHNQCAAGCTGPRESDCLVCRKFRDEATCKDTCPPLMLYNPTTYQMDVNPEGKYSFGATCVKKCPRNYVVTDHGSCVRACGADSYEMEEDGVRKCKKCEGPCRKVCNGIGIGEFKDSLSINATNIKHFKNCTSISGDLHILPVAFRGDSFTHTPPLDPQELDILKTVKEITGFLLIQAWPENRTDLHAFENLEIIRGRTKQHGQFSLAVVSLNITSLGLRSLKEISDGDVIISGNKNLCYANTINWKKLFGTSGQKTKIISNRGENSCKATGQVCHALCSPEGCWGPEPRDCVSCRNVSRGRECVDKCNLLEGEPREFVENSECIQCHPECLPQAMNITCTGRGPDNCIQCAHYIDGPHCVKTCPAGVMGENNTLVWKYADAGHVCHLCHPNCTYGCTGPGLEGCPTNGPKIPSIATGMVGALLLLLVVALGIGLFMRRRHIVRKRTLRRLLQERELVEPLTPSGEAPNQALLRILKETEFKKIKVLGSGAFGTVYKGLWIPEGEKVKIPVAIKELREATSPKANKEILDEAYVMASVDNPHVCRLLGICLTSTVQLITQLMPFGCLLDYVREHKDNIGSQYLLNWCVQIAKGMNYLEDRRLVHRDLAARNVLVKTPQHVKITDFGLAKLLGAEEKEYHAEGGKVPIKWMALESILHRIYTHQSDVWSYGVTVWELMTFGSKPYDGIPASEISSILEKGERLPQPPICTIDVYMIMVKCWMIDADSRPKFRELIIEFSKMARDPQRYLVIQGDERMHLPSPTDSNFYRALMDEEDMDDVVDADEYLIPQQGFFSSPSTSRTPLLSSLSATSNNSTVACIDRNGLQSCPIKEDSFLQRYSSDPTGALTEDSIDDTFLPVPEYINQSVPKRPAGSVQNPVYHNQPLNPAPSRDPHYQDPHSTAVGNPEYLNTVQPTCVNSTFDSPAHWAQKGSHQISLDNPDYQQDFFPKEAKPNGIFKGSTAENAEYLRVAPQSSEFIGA
Atypical kinase COQ8B, mitochondrial (Homo sapiens), sequence (Q96D53 whole entry): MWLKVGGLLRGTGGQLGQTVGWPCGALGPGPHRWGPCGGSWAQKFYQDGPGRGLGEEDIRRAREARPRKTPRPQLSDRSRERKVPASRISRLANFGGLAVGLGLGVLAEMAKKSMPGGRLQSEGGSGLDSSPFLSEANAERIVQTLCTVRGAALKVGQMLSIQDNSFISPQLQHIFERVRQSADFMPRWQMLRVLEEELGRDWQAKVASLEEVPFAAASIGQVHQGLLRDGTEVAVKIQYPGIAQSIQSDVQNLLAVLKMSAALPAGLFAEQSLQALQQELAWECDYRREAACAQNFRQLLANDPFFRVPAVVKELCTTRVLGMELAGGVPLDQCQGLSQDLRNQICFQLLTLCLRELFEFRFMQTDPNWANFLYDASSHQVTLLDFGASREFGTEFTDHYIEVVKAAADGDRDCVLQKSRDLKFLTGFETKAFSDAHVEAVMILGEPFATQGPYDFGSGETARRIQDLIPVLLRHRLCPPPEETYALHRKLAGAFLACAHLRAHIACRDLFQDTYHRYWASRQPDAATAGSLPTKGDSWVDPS
Mitogen-activated protein kinase kinase kinase 13 (Homo sapiens), sequence (O43283 whole entry): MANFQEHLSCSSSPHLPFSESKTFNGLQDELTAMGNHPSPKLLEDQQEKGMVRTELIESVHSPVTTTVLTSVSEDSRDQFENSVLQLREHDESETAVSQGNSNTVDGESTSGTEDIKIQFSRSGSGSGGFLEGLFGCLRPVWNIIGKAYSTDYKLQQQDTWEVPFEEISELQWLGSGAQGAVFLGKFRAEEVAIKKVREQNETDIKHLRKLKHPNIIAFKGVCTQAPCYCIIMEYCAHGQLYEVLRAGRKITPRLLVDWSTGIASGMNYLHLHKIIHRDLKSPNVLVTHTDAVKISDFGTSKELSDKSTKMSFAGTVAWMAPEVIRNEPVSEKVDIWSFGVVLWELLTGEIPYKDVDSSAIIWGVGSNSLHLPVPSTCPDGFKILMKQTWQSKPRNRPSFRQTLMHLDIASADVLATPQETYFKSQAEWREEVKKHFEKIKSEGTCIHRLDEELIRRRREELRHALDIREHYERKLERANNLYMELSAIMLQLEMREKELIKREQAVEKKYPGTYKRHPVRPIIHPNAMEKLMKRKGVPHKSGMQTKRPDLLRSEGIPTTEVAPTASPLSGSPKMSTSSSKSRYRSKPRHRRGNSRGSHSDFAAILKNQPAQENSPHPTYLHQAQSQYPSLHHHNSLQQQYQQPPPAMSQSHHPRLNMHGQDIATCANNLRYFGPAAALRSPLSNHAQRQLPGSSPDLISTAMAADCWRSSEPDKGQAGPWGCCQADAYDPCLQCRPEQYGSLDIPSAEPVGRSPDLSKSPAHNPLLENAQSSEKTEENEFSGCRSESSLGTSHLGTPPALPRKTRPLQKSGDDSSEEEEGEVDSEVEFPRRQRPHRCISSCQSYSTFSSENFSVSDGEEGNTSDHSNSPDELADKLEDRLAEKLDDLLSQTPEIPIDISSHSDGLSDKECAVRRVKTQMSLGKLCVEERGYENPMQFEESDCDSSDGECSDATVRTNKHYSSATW

CC1=C(C#N)C(c2ccc3c(c2)c(NC(=O)c2ccccc2C)nn3C)C(C#N)=C(C)N1 [BAY-974]
inactive: residual activity [1] 100% | residual activity [2] 88% | residual activity [3] 99% | residual activity [4] 86% | residual activity [5] 98% | residual activity [6] 100% | residual activity [7] 87% | residual activity [8] 100% | inhibition [9] 2.21%

CCc1ccccc1C(=O)Nc1n[nH]c2c(C)c(F)c(C3C(C#N)=C(C)N(C)C(C)=C3C#N)cc12 [BAY-3827]
inactive: residual activity [1] 96% | residual activity [2] 52% | residual activity [3] 100% | residual activity [4] 100% | residual activity [5] 83% | residual activity [6] 93% | residual activity [7] 90% | residual activity [8] 73% | inhibition [9] 9.23%
